Entries after “also recorded” stand apart in the source; their conditions may differ.

Consider 8 compounds from US10988456B2, “O-aminoheteroaryl alkynyl-containing compound, preparation method therefor, and use thereof” (SHANGHAI INSTITUTE OF MATERIA MEDICA, CHINESE ACADEMY OF …, priority 2017, dated 2021).

For data set [1], the target named is FGFR1 (Homo sapiens, UniProt P11362). The experiment in a line: Inhibition of receptor tyrosine kinase activity at molecular level (ELISA, Poly(Glu,Tyr)4:1 substrate phosphorylation). In kind it is biochemical. As to conditions: for 10 nM inhibition ratio FGFR1: 10 nM compound, average of two independent experiments. How it is done:
(§1) Enzyme reaction substrate Poly(Glu, Tyr)4:1 was diluted with potassium-free PBS (10 mM sodium phosphate buffer, 150 mM NaCl, pH 7.2-7.4) to 20 μg/mL. […] The reaction was conducted under 37° C. for 12-16 hours. After the liquid was removed from the wells, the plate was washed three times with 200 μL/well of T-PBS (PBS containing 0.1% Tween-20), each for 5 minutes. The enzyme plate was dried in 37° C. dryer for 1-2 hours.
(§2) 50 μL ATP solution diluted with buffer (50 mM HEPES pH 7.4, 50 mM MgCl2, 0.5 mM MnCl2, 0.2 mM Na3VO4, 1 mM DTT) to a final concentration of 5 μM was added into each well. The compound was diluted with DMSO to a suitable concentration (1 μL/well) or the well contained the corresponding concentration of DMSO (negative control well) Then various kinase recombinant proteins diluted with 49 μL of reaction buffer was added to initiate the reaction. Each experiment required duplicate enzyme-free control well. The reaction was carried out for 1 hour on a 37° C. Shaker (100 rpm). The plate was washed three times with T-PBS. A dilution of the primary antibody PY99 was added (100 μL/well), and the reaction was conducted in a shaker at 37° C. for 0.5 hr. The plate was washed three times with T-PBS. A dilution of the horseradish peroxidase-labeled goat anti-mouse IgG secondary antibody was added (100 μL/well), and the reaction was conducted in a shaker at 37° C. for 0.5 hour. Plate was washed with T-PBS for three times. 2 mg/mL OPD coloration solution (diluted with 0.1 M citric acid-sodium citrate buffer containing 0.03% H2O2 (pH=5.4)) was added (100 μL/well), reacted for 1-10 minutes at 25° C. in dark. The reaction was quenched with 2M H2SO4 (50 μL/well), and read at 490 nm using a tunable microplate reader SPECTRA MAX 190.
(§3) The inhibition ratio of the sample was determined by the following formula: […]
(§4) The IC50 values were obtained via four-parameter regression analysis using the software supplied with the microplate reader.

Data set [2] addresses KDR (Homo sapiens, UniProt P35968). The data set is described as above. In kind it is biochemical. As to conditions: for 10 nM inhibition ratio KDR: 10 nM compound, average of two independent experiments. As for the experimental part:
as §1, §2, §3, §4

The target in data set [3] is RET (Homo sapiens, UniProt P07949). Described as above. In kind it is biochemical. As to conditions: for 10 nM inhibition ratio RET: 10 nM compound, average of two independent experiments. As for the experimental part:
as §1, §2, §3, §4

In data set [4] the test system is human gastric cancer SNU-16 xenografts. The experiment in a line: Growth of subcutaneous xenografts of human gastric cancer SNU-16 in nude mice (comparative compounds study). The following applies: for Weight (g, mean ± SD): SNU-16 tumor-bearing mice.
Method: The tumor tissue in the vigorous growth period was cut into 1.5 mm^3, and inoculated subcutaneously in the right axilla of nude mice under aseptic conditions. The diameter of the xenograft in nude mice was measured with a vernier caliper. The animals were randomly divided into groups when the average tumor volume was grown to about 190 mm^3. […] The diameter of the xenograft was measured twice a week during the entire experiment, and the body weight of the mice was weighed. The tumor volume (TV) was calculated as: TV=½×a×b^2, where a and b represented length and width, respectively. The relative tumor volume (RTV) was calculated based on the measured results, and the formula was: RTV=Vt/V0, wherein V0 represented the tumor volume obtained when the mice was divided and administered (i.e., d0), and Vt represented the tumor volume at each measurement. The anti-tumor activity evaluation index was the relative tumor proliferation rate T/C (%), and the calculation formula was as follows: T/C (%)=(TRTV/CRTV)×100%, wherein TRTV was TRV in treatment group; and CRTV was RTV in negative control group.

Sequence of KDR (P35968 20-1356): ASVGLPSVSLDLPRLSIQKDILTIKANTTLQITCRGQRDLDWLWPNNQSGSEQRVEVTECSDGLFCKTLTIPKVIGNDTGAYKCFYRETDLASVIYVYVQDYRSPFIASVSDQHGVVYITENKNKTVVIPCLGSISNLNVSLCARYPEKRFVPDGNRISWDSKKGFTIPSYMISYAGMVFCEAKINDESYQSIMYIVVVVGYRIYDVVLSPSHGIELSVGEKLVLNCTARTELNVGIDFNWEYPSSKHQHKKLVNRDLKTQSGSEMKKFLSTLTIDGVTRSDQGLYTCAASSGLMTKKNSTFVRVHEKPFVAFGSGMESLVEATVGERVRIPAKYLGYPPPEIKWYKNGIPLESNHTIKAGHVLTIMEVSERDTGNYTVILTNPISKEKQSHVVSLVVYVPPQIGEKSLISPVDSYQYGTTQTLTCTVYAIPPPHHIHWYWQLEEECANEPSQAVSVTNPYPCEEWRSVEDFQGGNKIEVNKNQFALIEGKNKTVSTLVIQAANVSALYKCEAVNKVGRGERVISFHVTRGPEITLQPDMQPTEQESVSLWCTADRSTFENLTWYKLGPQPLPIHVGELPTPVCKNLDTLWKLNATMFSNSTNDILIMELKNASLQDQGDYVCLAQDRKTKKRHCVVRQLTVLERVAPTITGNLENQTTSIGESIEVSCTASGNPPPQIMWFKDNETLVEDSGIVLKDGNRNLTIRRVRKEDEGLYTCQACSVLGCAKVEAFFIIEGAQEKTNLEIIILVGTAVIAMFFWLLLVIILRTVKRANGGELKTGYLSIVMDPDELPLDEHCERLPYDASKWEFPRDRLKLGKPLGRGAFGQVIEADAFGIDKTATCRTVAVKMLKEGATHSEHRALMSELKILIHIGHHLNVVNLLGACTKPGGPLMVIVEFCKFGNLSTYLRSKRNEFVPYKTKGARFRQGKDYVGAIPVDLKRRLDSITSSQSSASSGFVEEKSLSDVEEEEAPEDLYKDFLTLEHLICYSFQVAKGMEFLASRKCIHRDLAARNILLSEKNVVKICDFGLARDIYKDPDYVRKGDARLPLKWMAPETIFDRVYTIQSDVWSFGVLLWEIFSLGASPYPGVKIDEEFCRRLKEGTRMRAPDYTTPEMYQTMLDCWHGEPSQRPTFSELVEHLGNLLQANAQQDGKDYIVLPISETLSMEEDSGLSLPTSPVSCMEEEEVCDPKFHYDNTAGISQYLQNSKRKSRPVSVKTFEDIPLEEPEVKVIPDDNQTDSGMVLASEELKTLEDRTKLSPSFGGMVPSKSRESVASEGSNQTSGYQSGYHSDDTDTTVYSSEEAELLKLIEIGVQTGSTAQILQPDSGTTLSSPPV
Sequence of RET (P07949 29-1114): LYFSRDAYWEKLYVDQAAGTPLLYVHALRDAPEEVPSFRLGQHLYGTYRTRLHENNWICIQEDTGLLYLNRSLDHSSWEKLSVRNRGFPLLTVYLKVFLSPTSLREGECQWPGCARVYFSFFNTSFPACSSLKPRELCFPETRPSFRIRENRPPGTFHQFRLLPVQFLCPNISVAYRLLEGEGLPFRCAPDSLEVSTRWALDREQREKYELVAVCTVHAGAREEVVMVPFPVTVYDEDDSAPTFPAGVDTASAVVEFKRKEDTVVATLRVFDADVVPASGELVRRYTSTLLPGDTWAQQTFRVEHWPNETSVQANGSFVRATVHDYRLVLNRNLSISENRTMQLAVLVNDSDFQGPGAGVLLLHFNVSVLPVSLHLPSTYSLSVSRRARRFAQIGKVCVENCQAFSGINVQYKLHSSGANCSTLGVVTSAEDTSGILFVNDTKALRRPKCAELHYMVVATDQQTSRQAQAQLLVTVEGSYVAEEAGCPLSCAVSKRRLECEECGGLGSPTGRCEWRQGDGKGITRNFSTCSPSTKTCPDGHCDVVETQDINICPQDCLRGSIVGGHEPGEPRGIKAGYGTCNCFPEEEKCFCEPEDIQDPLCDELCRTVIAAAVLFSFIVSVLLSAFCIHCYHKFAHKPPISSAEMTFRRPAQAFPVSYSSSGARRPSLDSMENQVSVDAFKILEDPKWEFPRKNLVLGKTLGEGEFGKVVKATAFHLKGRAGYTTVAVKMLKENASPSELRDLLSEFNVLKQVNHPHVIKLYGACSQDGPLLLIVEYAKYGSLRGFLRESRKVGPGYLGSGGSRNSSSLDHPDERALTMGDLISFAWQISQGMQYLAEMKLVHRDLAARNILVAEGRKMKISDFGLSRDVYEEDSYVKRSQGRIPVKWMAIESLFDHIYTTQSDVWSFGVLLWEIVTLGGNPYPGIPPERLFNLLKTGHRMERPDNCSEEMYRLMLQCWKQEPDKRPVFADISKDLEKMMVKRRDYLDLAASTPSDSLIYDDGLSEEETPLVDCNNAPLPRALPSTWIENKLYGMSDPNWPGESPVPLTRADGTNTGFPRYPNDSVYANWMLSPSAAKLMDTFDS
Sequence of FGFR1 (P11362 22-822): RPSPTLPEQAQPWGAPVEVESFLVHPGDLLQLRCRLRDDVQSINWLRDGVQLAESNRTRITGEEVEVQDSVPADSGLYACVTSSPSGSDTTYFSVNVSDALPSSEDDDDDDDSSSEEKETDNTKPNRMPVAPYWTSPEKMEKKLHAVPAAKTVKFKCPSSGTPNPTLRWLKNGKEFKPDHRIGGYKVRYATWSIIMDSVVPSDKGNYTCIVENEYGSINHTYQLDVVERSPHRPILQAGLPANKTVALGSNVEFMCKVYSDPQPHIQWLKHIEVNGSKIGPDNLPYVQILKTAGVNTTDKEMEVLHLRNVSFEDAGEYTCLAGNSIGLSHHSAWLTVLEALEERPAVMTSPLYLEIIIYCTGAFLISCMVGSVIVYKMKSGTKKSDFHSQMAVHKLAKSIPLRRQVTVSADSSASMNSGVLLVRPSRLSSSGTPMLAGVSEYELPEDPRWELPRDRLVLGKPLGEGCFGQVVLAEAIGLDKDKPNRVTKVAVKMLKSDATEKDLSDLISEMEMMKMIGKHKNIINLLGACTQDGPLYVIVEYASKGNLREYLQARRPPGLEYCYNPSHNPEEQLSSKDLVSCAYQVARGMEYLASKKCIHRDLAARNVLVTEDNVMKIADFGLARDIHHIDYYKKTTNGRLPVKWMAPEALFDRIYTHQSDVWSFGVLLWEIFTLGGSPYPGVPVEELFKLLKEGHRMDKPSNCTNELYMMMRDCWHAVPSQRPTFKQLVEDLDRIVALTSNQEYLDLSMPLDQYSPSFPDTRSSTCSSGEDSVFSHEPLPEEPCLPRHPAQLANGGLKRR

As for `Nc1ncccc1C#Cc1cc(C(=O)Nc2ccc(CN3CCNCC3)c(C(F)(F)F)c2)ccc1Cl` [Example 51], the “10 nM inhibition ratio FGFR1” value in data set [1] is 67.9. Moreover, the “10 nM inhibition ratio KDR” value in data set [2] is on record as 38.2. The “10 nM inhibition ratio RET” value in data set [3] is reported as 79.4.

`CN1CCN(Cc2ccc(NC(=O)c3ccc(Cl)c(C#Cc4cncc(N5CCOCC5)c4)c3)cc2C(F)(F)F)CC1` [HuFGFR1-113]: the animal deaths result in data set [4] (SNU-16, 20 mg/kg group) is recorded as “one mouse died on day 20”; in data set [4] (SNU-16, 100 mg/kg group), “One mouse died on the third day; also recorded: Two mice died on the fifth day”. For the same compound, the “Relative tumor volume RTV (mean ± SD)” value in data set [4] (SNU-16, 20 mg/kg orally once a day, d0) is 1.00 ± 0.00; in data set [4] (SNU-16, 20 mg/kg orally once a day, d3), 1.12 ± 0.03; in data set [4] (SNU-16, 20 mg/kg orally once a day, d7), 0.64 ± 0.23; in data set [4] (SNU-16, 20 mg/kg orally once a day, d10), 0.54 ± 0.22; in data set [4] (SNU-16, 20 mg/kg orally once a day, d14), 0.92 ± 0.17; in data set [4] (SNU-16, 20 mg/kg orally once a day, d17), 1.18 ± 0.42. In addition, the “Relative tumor volume RTV (mean ± SD)” value was found to be 1.35 ± 0.15 in data set [4] (SNU-16, 20 mg/kg orally once a day, d21); 1.00 ± 0.00 in data set [4] (SNU-16, 100 mg/kg orally once a day (administration interrupted), d0); 1.32 ± 0.40 in data set [4] (SNU-16, 100 mg/kg orally once a day (administration interrupted), d3); 0.58 ± 0.02 in data set [4] (SNU-16, 100 mg/kg orally once a day (administration interrupted), d7); 0.60 ± 0.02 in data set [4] (SNU-16, 100 mg/kg orally once a day (administration interrupted), d10); 0.58 ± 0.35 in data set [4] (SNU-16, 100 mg/kg orally once a day (administration interrupted), d14). In addition, the “Relative tumor volume RTV (mean ± SD)” value is given as 1.16 ± 0.86 in data set [4] (SNU-16, 100 mg/kg orally once a day (administration interrupted), d17) and 1.52 ± / in data set [4] (SNU-16, 100 mg/kg orally once a day (administration interrupted), d21). The “relative tumor proliferation rate T/C” value in data set [4] (SNU-16, 20 mg/kg orally once a day, day 21) came out at 23.30%. In data set [4] (SNU-16, 100 mg/kg group), the “toxicity / condition of the mice (in words)” value is on record as “significant toxicity”. Further, in data set [4] (SNU-16, HuFGFR1-113 at 20 mg/kg, HuFGFR1-117 dose not stated), the “weight of the tumor-bearing mice (in words)” value is listed as “decreased significantly”. Besides, the “Weight (g, mean ± SD)” value came to 23.2 ± 1.8 g in data set [4] (20 mg/kg orally once a day, d0); 24.0 ± 1.5 g in data set [4] (20 mg/kg orally once a day, d3); 22.4 ± 1.8 g in data set [4] (20 mg/kg orally once a day, d7); 20.2 ± 1.9 g in data set [4] (20 mg/kg orally once a day, d10); 19.7 ± 2.9 g in data set [4] (20 mg/kg orally once a day, d14); 20.1 ± 3.7 g in data set [4] (20 mg/kg orally once a day, d17). Also, the “Weight (g, mean ± SD)” value in data set [4] (20 mg/kg orally once a day, d21) is given as 20.3 ± 1.6 g; in data set [4] (100 mg/kg orally once a day (administration interrupted), d0), 23.4 ± 2.7 g; in data set [4] (100 mg/kg orally once a day (administration interrupted), d3), 23.1 ± 2.0 g; in data set [4] (100 mg/kg orally once a day (administration interrupted), d7), 20.7 ± 0.1 g; in data set [4] (100 mg/kg orally once a day (administration interrupted), d10), 22.1 ± 0.4 g; in data set [4] (100 mg/kg orally once a day (administration interrupted), d14), 25.4 ± 1.6 g. Moreover, the “Weight (g, mean ± SD)” value in data set [4] (100 mg/kg orally once a day (administration interrupted), d17) is 25.5 ± 3.0 g; in data set [4] (100 mg/kg orally once a day (administration interrupted), d21), 21.2 ± / g.

With `CN1CCN(Cc2ccc(NC(=O)c3ccc(Cl)c(C#Cc4cc(F)cnc4N)c3)cc2C(F)(F)F)CC1` [Example 16], the “10 nM inhibition ratio FGFR1” value in data set [1] is reported as 70.5. The “10 nM inhibition ratio KDR” value in data set [2] is 25.2. Moreover, the “10 nM inhibition ratio RET” value in data set [3] was determined as 71.8.

As for `CN1CCN(Cc2ccc(NC(=O)c3ccc(Cl)c(C#Cc4cc(COC(F)(F)F)cnc4N)c3)cc2C(F)(F)F)CC1` [Example 32], the “10 nM inhibition ratio FGFR1” value in data set [1] worked out at 66.3. Further, the “10 nM inhibition ratio KDR” value in data set [2] came to 37.2. Moreover, the “10 nM inhibition ratio RET” value in data set [3] was 70.8.

Regarding `C=CC(=O)Nc1cnc(N)c(C#Cc2cc(C(=O)Nc3ccc(CN4CCN(C)CC4)c(C(F)(F)F)c3)ccc2Cl)c1` [Example 39], the “10 nM inhibition ratio FGFR1” value in data set [1] is 53.4. The “10 nM inhibition ratio KDR” value in data set [2] is given as 36.4. Further, the “10 nM inhibition ratio RET” value in data set [3] is given as 88.0.

On to `COc1cc(C#Cc2cccnc2N)cc(C(=O)Nc2ccc(CN3CCN(C)CC3)c(C(F)(F)F)c2)c1` [Example 13], for which the “10 nM inhibition ratio FGFR1” value in data set [1] came to 70.2. Besides, in data set [2], the “10 nM inhibition ratio KDR” value is 15.1. For the same compound, the “10 nM inhibition ratio RET” value in data set [3] stood at 64.3.

Turning to `CN1CCN(Cc2ccc(NC(=O)c3ccc(Cl)c(C#Cc4cc(N(C)C)cnc4N)c3)cc2C(F)(F)F)CC1` [Example 36], the “10 nM inhibition ratio FGFR1” value in data set [1] turned out to be 49.9. For the same compound, the “10 nM inhibition ratio KDR” value in data set [2] is reported as 12.1. In data set [3], the “10 nM inhibition ratio RET” value is given as 56.3.

Take `CN1CCN(Cc2ccc(NC(=O)c3ccc(Cl)c(C#Cc4ccc(N)nc4)c3)cc2C(F)(F)F)CC1` [HuFGFR151, reference compound]: the “inhibition ratio FGFR1 (100 nM)” value in data set [1] (100 nM compound) stood at 21.1. Further, in data set [2] (100 nM compound), the “inhibition ratio KDR (100 nM)” value is given as 23.9. Also, the “inhibition ratio RET (100 nM)” value in data set [3] (100 nM compound) came out at 29.7.
